Data: patent publication US7772241B2, “Variolin derivatives and their use as antitumor agents” (Pharma Mar S.A., priority 2001, dated 2010)

Columns and labels:
K-562 = assay: Inhibition of cells growth by colorimetric (SRB) assay, K-562; conditions: for GI50 / CC50: Homo sapiens, K562, 48 h; for GI50: read-out: GI50 K-562, SRB assay, 48 hours exposure; for CC50: read-out: LC50 K-562, SRB assay, 48 hours exposure; for TGI K-562: SRB assay, 48 hours exposure
Description: (§1) The finality of these assays is to interrupt the growth of a “in vitro” tumor cell culture by means a continued exhibition of the cells to the sample to be testing.
(§2) This form of the assay employs 96 well cell culture microplates of 9 mm diameter (Faircloth, 1988; Mosmann, 1983). Most of the cell lines are obtained from American Type Culture Collection (ATCC) derived from different human cancer types.
(§3) Cells are maintained in RPMI 1640 10% FBS, supplemented with 0.1 g/l penicillin and 0.1 g/l streptomycin sulphate and then incubated at 37° C., 5% CO2 and 98% humidity. For the experiments, cells were harvested from subconfluent cultures using trypsin and resuspended in fresh medium before plating.
(§4) Cells are seeded in 96 well microtiter plates, at 5×10^3 cells per well in aliquots of 195 μl medium, and they are allowed to attach to the plate surface by growing in drug free medium for 18 hours. Afterward, samples are added in aliquots of 5 μl in a ranging from 10 to 10^−8 μg/ml, dissolved in DMSO/EtOH/PBS (0.5:0.5:99). After 48 hours exposure, the antitumor effect are measured by the SRB methodology: cells are fixed by adding 50 μl of cold 50% (wt/vol) trichloroacetic acid (TCA) and incubating for 60 minutes at 4° C. Plates are washed with deionized water and dried. One hundred μl of SRB solution (0.4% wt/vol in 1% acetic acid) is added to each microtiter well and incubated for 10 minutes at room temperature. Unbound SRB is removed by washing with 1% acetic acid. Plates are air dried and bound stain is solubilized with Tris buffer. Optical densities are read on a automated spectrophotometric plate reader at a single wavelength of 490 nm.
(§5) The values for mean +/−SD of data from triplicate wells are calculated. Some parameters for cellular responses can be calculated: GI=growth inhibition, TGI=total growth inhibition (cytostatic effect) and LC=cell killing (cytotoxic effect).

A-549 = assay: Inhibition of cells growth by colorimetric (SRB) assay, A-549; conditions: for GI50 / CC50: Homo sapiens, A549, 48 h; for GI50: read-out: GI50 A-549, SRB assay, 48 hours exposure; for CC50: read-out: LC50 A-549, SRB assay, 48 hours exposure; for TGI A-549: SRB assay, 48 hours exposure
Description: as §1, §2, §3, §4, §5

SK-MEL-28 = assay: Inhibition of cells growth by colorimetric (SRB) assay, SK-MEL-28; conditions: for GI50 / CC50: Homo sapiens, SK-MEL-28, 48 h; for GI50: read-out: GI50 MEL-28, SRB assay, 48 hours exposure; for CC50: read-out: LC50 MEL-28, SRB assay, 48 hours exposure; for TGI MEL-28: SRB assay, 48 hours exposure
Description: as §1, §2, §3, §4, §5

HT-29 = assay: Inhibition of cells growth by colorimetric (SRB) assay, HT-29; conditions: for GI50 / CC50: Homo sapiens, HT-29, 48 h; for GI50: read-out: GI50 HT-29, SRB assay, 48 hours exposure; for CC50: read-out: LC50 HT-29, SRB assay, 48 hours exposure; for TGI HT-29: SRB assay, 48 hours exposure
Description: as §1, §2, §3, §4, §5

LoVo = assay: Inhibition of cells growth by colorimetric (SRB) assay, LoVo; conditions: for GI50 / CC50: Homo sapiens, LoVo, 48 h; for GI50: read-out: GI50 LOVO, SRB assay, 48 hours exposure; for CC50: read-out: LC50 LOVO, SRB assay, 48 hours exposure; for TGI LOVO: SRB assay, 48 hours exposure
Description: as §1, §2, §3, §4, §5

LoVo-Dox = assay: Inhibition of cells growth by colorimetric (SRB) assay, LoVo-Dox; conditions: for GI50 / CC50: Homo sapiens, 48 h; for GI50: read-out: GI50 LOVO-DOX, SRB assay, 48 hours exposure; for CC50: read-out: LC50 LOVO-DOX, SRB assay, 48 hours exposure; for TGI LOVO-DOX: SRB assay, 48 hours exposure
Description: as §1, §2, §3, §4, §5

DU-145 = assay: Inhibition of cells growth by colorimetric (SRB) assay, DU-145; conditions: for GI50 / CC50: Homo sapiens, DU-145, 48 h; for GI50: read-out: GI50 DU-145, SRB assay, 48 hours exposure; for CC50: read-out: LC50 DU-145, SRB assay, 48 hours exposure; for TGI DU-145: SRB assay, 48 hours exposure
Description: as §1, §2, §3, §4, §5

LNCaP = assay: Inhibition of cells growth by colorimetric (SRB) assay, LNCaP; conditions: for GI50 / CC50: Homo sapiens, LNCaP, 48 h; for GI50: read-out: GI50 LN-caP, SRB assay, 48 hours exposure; for CC50: read-out: LC50 LN-caP, SRB assay, 48 hours exposure; for TGI LN-caP: SRB assay, 48 hours exposure
Description: as §1, §2, §3, §4, §5

IGROV-1 = assay: Inhibition of cells growth by colorimetric (SRB) assay, IGROV-1; conditions: for GI50 / CC50: Homo sapiens, IGROV-1, 48 h; for GI50: read-out: GI50 IGROV, SRB assay, 48 hours exposure; for CC50: read-out: LC50 IGROV, SRB assay, 48 hours exposure; for TGI IGROV: SRB assay, 48 hours exposure
Description: as §1, §2, §3, §4, §5

IGROV-ET = assay: Inhibition of cells growth by colorimetric (SRB) assay, IGROV-ET; conditions: for GI50 / CC50: Homo sapiens, 48 h; for GI50: read-out: GI50 IGROV-ET, SRB assay, 48 hours exposure; for CC50: read-out: LC50 IGROV-ET, SRB assay, 48 hours exposure; for TGI IGROV-ET: SRB assay, 48 hours exposure
Description: as §1, §2, §3, §4, §5

SK-OV-3 = assay: Inhibition of cells growth by colorimetric (SRB) assay, SK-OV-3; conditions: for GI50 / CC50: Homo sapiens, SK-OV-3, 48 h; for GI50: read-out: GI50 SKOV-3, SRB assay, 48 hours exposure; for CC50: read-out: LC50 SKOV-3, SRB assay, 48 hours exposure; for TGI SKOV-3: SRB assay, 48 hours exposure
Description: as §1, §2, §3, §4, §5

PANC-1 = assay: Inhibition of cells growth by colorimetric (SRB) assay, PANC-1; conditions: for GI50 / CC50: Homo sapiens, PANC-1, 48 h; for GI50: read-out: GI50 PANC-1, SRB assay, 48 hours exposure; for CC50: read-out: LC50 PANC-1, SRB assay, 48 hours exposure; for TGI PANC-1: SRB assay, 48 hours exposure
Description: as §1, §2, §3, §4, §5

Nc1nccc(-c2c3c(Cl)ccnc3n3c(N)nccc23)n1 [Compound 113]
GI50 (K-562): 6.16 µM
CC50 (K-562): 32.1 µM
TGI K-562 (K-562): 2.00E−05
GI50 (A-549): 4.3 µM
CC50 (A-549): 21.4 µM
TGI A-549 (A-549): 9.59E−06
GI50 (SK-MEL-28): 2.12 µM
CC50 (SK-MEL-28): 17.6 µM
TGI MEL-28 (SK-MEL-28): 6.29E−06
GI50 (HT-29): 4.72 µM
CC50 (HT-29): 32.1 µM
TGI HT-29 (HT-29): 3.21E−05
GI50 (LoVo): 1.26 µM
CC50 (LoVo): 32.1 µM
TGI LOVO (LoVo): 7.83E−06
GI50 (LoVo-Dox): 2.35 µM
CC50 (LoVo-Dox): 32.1 µM
TGI LOVO-DOX (LoVo-Dox): 1.18E−05
GI50 (DU-145): 1.51 µM
CC50 (DU-145): 32.1 µM
TGI DU-145 (DU-145): 6.26E−06
GI50 (LNCaP): 1.57 µM
CC50 (LNCaP): 15.6 µM
TGI LN-caP (LNCaP): 2.39E−06
GI50 (IGROV-1): 2.94 µM
CC50 (IGROV-1): 24.1 µM
TGI IGROV (IGROV-1): 8.53E−06
GI50 (IGROV-ET): 1.3 µM
CC50 (IGROV-ET): 32.1 µM
TGI IGROV-ET (IGROV-ET): 6.00E−06
GI50 (SK-OV-3): 1.37 µM
CC50 (SK-OV-3): 32.1 µM
TGI SKOV-3 (SK-OV-3): 5.39E−06
GI50 (PANC-1): 1.11 µM
CC50 (PANC-1): 32.1 µM
TGI PANC-1 (PANC-1): 2.76E−05

Nc1nccc2c(-c3ccnc(O)n3)c3cccnc3n12 [Compound 80]
GI50 (K-562): 9.88 µM
CC50 (K-562): 35.9 µM
TGI K-562 (K-562): 3.59E−05
GI50 (A-549): 7.73 µM
CC50 (A-549): 32.7 µM
TGI A-549 (A-549): 1.59E−05
GI50 (SK-MEL-28): 2.42 µM
CC50 (SK-MEL-28): 19.7 µM
TGI MEL-28 (SK-MEL-28): 7.08E−06
GI50 (HT-29): 2.45 µM
CC50 (HT-29): 35.9 µM
TGI HT-29 (HT-29): 3.59E−05
GI50 (LoVo): 4.06 µM
CC50 (LoVo): 35.9 µM
TGI LOVO (LoVo): 1.48E−05
GI50 (LoVo-Dox): 4.2 µM
CC50 (LoVo-Dox): 35.9 µM
TGI LOVO-DOX (LoVo-Dox): 2.01E−05
GI50 (DU-145): 1.81 µM
CC50 (DU-145): 35.9 µM
TGI DU-145 (DU-145): 8.70E−06
GI50 (LNCaP): 0.97 µM
CC50 (LNCaP): 2.79 µM
TGI LN-caP (LNCaP): 1.65E−06
GI50 (IGROV-1): 1.55 µM
CC50 (IGROV-1): 24.8 µM
TGI IGROV (IGROV-1): 3.26E−06
GI50 (IGROV-ET): 2.48 µM
CC50 (IGROV-ET): 35.9 µM
TGI IGROV-ET (IGROV-ET): 9.45E−06
GI50 (SK-OV-3): 12.5 µM
CC50 (SK-OV-3): 35.9 µM
TGI SKOV-3 (SK-OV-3): 3.45E−05
GI50 (PANC-1): 8.41 µM
CC50 (PANC-1): 35.9 µM
TGI PANC-1 (PANC-1): 2.42E−05

CSc1nccc2c(C(C)C)c3cccnc3n12 [Compound 61]
GI50 (K-562): 9.79 µM
CC50 (K-562): ≥ 38.9 µM
TGI K-562 (K-562): 2.44E−05
GI50 (A-549): 24.6 µM
CC50 (A-549): ≥ 38.9 µM
TGI A-549 (A-549): 3.89E−05
GI50 (SK-MEL-28): 20.2 µM
CC50 (SK-MEL-28): ≥ 38.9 µM
TGI MEL-28 (SK-MEL-28): 3.89E−05
GI50 (HT-29): 28.9 µM
CC50 (HT-29): ≥ 38.9 µM
TGI HT-29 (HT-29): 3.89E−05
GI50 (LoVo): 23 µM
CC50 (LoVo): ≥ 38.9 µM
TGI LOVO (LoVo): 3.89E−05
GI50 (LoVo-Dox): 13.7 µM
CC50 (LoVo-Dox): ≥ 38.9 µM
TGI LOVO-DOX (LoVo-Dox): 3.89E−05
GI50 (DU-145): 14.9 µM
CC50 (DU-145): ≥ 38.9 µM
TGI DU-145 (DU-145): 3.89E−05
GI50 (LNCaP): 8.7 µM
CC50 (LNCaP): 37.1 µM
TGI LN-caP (LNCaP): 1.80E−05
GI50 (IGROV-1): 15.7 µM
CC50 (IGROV-1): ≥ 38.9 µM
TGI IGROV (IGROV-1): 3.49E−05
GI50 (IGROV-ET): 7.34 µM
CC50 (IGROV-ET): ≥ 38.9 µM
TGI IGROV-ET (IGROV-ET): 2.27E−05
GI50 (SK-OV-3): 12.4 µM
CC50 (SK-OV-3): ≥ 38.9 µM
TGI SKOV-3 (SK-OV-3): 2.96E−05
GI50 (PANC-1): 11.5 µM
CC50 (PANC-1): ≥ 38.9 µM
TGI PANC-1 (PANC-1): 3.83E−05
